Laboratory results taken from PubChem BioAssay AID1919006 (Molecular Pharmacology Branch, DTP, NCI, 2023).
Values joined by “and” are separate entries in the source; they are usually repeats but may differ in a detail not shown here. Equal values may be shown once.

System: 885512-296-R-J2-PDC complex spheroid growth, % test/control
Assay: Anticancer human tumor 885512-296-R-J2-PDC patient-derived breast carcinoma cell line growth inhibition [AhR]
Conditions: for viability, T/C: stronger effect = lower value
Excerpt: Multicellular complex tumor spheroid response to aryl hydrocarbon receptor antagonists in combination with a variety of drugs and investigational agents in selected tumor cell lines
The current study was undertaken to assess response to aryl hydrocarbon receptor antagonists in combination with standard-of-care drugs and investigational agents in solid tumor complex spheroid models. Complex spheroids include a stromal component modeled by human endothelial cells (HUVEC) and fibroblasts modeled by human mesenchymal stem cells (MSCs). The concentration ranges selected for each drug and investigational agent were based upon clinically achievable concentrations if the clinical Cmax of the agent was known.
Compounds. The drugs and investigational agents: BAY 2416964 (NSC825713), GNF351 (NSC835774), CH-223191 (NSC835775), CPI-455 (NSC825282), aza-TdCyd (NSC777586), decitabine (NSC127716), belinostat (NSC758774), entinostat (NSC756642), pevonedistat (NSC761192), tazemetostat (NSC777109), talazoparib (NSC765396), olaparib (NSC753686), selinexor (NSC780203), nedisertib (M3814, NSC802822), bortezomib (NSC756655), venetoclax (NSC766270), doxorubicin (NSC123127), elimusertib (BAY189344, NSC800525), ceralasertib (AZD6738, NSC777638), TAK-243 (NSC785004), alisertib (NSC759677), etoposide (NSC141540), topotecan (NSC609699), eribulin (NSC707389), gemcitabine (NSC613327), carboplatin (NSC241240), cisplatin (NSC119875), and SN-38 (NSC673596) were obtained from the National Cancer Institute (NCI) Developmental Therapeutics Program Chemical Repository (32). The FDA-approved anticancer drug set is available from the Developmental Therapeutics Program at https://dtp.cancer.gov/organization/dscb/obtaining/available plates.htm. […] The stock solutions were prepared in dimethyl sulfoxide (DMSO, Sigma-Aldrich, St. Louis, MO, cat. D2650), except for the platinum compounds which were prepared in saline (Quality Biological, Gaithersburg, MD, cat. 114-055-101), at 800-fold the tested concentration and stored at -70 degrees C prior to their use. All drugs and investigational agents were tested over a range starting from a high concentration at or near the clinical Cmax and decreasing in half-log increments. If the clinical Cmax for an agent had not been determined, the highest concentration tested was 10 microM (Table 1).
Cell Culture. All cells were maintained in an incubator at 37 degrees C and 5% CO2 with 95% humidity. The PDC lines were cultured according to standard operating procedures established by the NCI PDMR (https://pdmr.cancer.gov). Briefly, all PDCs were thawed and cultured in Matrigel-coated flasks prepared with a working solution of 1X Ham's F-12 nutrient mix, without supplementation (Invitrogen, Waltham, MA, cat. 11765054), 100 U/mL penicillin-streptomycin (Invitrogen, cat. 15140122), and 2.5% Matrigel (Corning Inc., Corning, NY, cat. 354248) for the first three passages. All PDCs were cultured in complete DMEM/F-12 media containing advanced DMEM/F-12 (Invitrogen, cat. 12634028), 4.9% defined fetal bovine serum, heat inactivated (HyClone Laboratories Inc., Logan, UT, cat. SH30070.03HI), 389 ng/mL hydrocortisone (Sigma-Aldrich, cat. H4001), 9.7 ng/mL human EGF recombinant protein (Invitrogen, cat. PHG0313), 23.4 microg/mL adenine (Sigma-Aldrich, cat. A2786), 97.3 U/mL penicillin-streptomycin (Invitrogen, cat. 15140122), 1.9 mM L-glutamine (Invitrogen, cat. 25030081), and 9.7 microM Y-27632 dihydrochloride (Tocris Bioscience, Bristol, United Kingdom, cat. 1254). The PDCs were cultured in complete DMEM/F12 media without 10 microM Y-27632 dihydrochloride for at least two passages prior to the screen. The established cell lines NCI-H1341 and […] were cultured in DMEM/F-12, HEPES (Invitrogen, cat. 11330032), 5% defined fetal bovine serum (HyClone Laboratories Inc., cat. SH30070.03), ITS premix universal culture supplement [insulin (5 microg/mL), transferrin (5 microg/mL), and selenious acid (5 ng/mL)] […]
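Note: spheroids exposed to compounds for seven days.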

Structure (SMILES) | viability, T/C (compound 0.0316 µM) | viability, T/C (compound 0.1 µM) | viability, T/C (compound 0.316 µM) | viability, T/C (compound 1 µM) | viability, T/C (compound 3.16 µM) | viability, T/C (compound 10 µM) | IC50 (curve of compound) | other results
COc1cccc2c1C(=O)c1c(O)c3c(c(O)c1C2=O)CC(O)(C(=O)CO)CC3OC1CC(N)C(O)C(C)O1 (stereo not given) | 22.1% and 16.4% and 24.6% | 20.5% and 11.7% and 14.2% | 8.97% and 3.94% and 5.3% | 0.67% and 0.49% and 0.27% | 1.99% and 1.41% and 0.92% | 1.58% and 1.1% and 0.8% | < 31.6 nM | 
Cc1ccccc1N=Nc1ccc(NC(=O)c2ccnn2C)c(C)c1 |  |  |  |  |  | 53.1% [middle of 21 runs] |  | 
Cc1cncc(-c2nc(NCCc3c[nH]c4ccccc34)c3ncn(C(C)C)c3n2)c1 |  | 105% [middle of 20 runs] |  |  | 60% [middle of 20 runs] | 19.6% [middle of 20 runs] |  | IC50 (compound alone, run of 08/16/2022): 4.14 µM [middle of 24 runs]
Cn1ncnc1C1c2n[nH]c(=O)c3cc(F)cc(c23)NC1c1ccc(F)cc1 (stereo not given) | 79.9% and 75.4% and 87.3% | 58% and 57% and 53.9% |  |  |  |  | > 100 nM | viability, T/C (compound 0.000316 µM): 96.9% and 103% and 101%; viability, T/C (compound 0.001 µM): 88.9% and 93.1% and 107%; viability, T/C (compound 0.00316 µM): 90.6% and 91.2% and 108%; viability, T/C (compound 0.01 µM): 88.6% and 93.7% and 89%
NS(=O)(=O)OCC1CC(n2ccc3c(NC4CCc5ccccc54)ncnc32)CC1O (stereo not given) | 87% and 90.8% and 96.4% | 45.5% and 46.1% and 46.9% | 13.6% and 12.9% and 16% | 6.2% and 6.25% and 7.3% | 5.6% and 5% and 5.76% | 4.67% and 3.65% and 5.16% | 88.4 nM and 90.3 nM and 93 nM | 
Nc1ccccc1NC(=O)c1ccc(CNC(=O)OCc2cccnc2)cc1 | 79.7% and 97% and 82.8% | 86.1% and 81.5% and 74.1% | 67.5% and 63.9% and 58.3% | 48.1% (2×) and 46.7% | 25.6% and 24.4% and 32.2% | 10.4% and 10.3% (2×) | 920 nM and 758 nM and 747 nM | 
Nc1ccn(C2OC(CO)C(O)C2(F)F)c(=O)n1 (stereo not given) | 3% and 2.24% and 2.66% | 3.22% and 2.41% and 2.65% | 3.38% and 3.96% and 3.68% | 3.04% and 4.06% and 3.38% | 3.46% and 3.77% and 3.42% | 3.08% and 3.9% and 2.46% | < 31.6 nM | 
Nc1ncn(C2CC(O)C(CO)O2)c(=O)n1 (stereo not given) | 98.7% and 97.9% and 108% | 82.1% and 86% and 107% | 65.7% and 74.5% and 72% | 41.9% and 42.8% and 39.9% |  |  | 670 nM and 776 nM and 697 nM | viability, T/C (compound 0.00316 µM): 90.1% and 103% and 107%; viability, T/C (compound 0.01 µM): 89.7% and 93.7% and 117%
Nc1ncn(C2CC(O)C(CO)S2)c(=O)n1 (stereo not given) |  |  |  |  |  |  | 129 nM and 160 nM and 239 nM | viability, T/C (compound 0.000949 µM): 109% and 103% and 93%; viability, T/C (compound 0.003 µM): 93.6% and 108% and 103%; viability, T/C (compound 0.00949 µM): 96.9% and 120% and 104%; viability, T/C (compound 0.03 µM): 89.1% and 99.3% and 116%; viability, T/C (compound 0.0949 µM): 56.2% and 61.2% and 75.9%; viability, T/C (compound 0.3 µM): 31.1% and 37% and 43.6%
O=C(C=Cc1cccc(S(=O)(=O)Nc2ccccc2)c1)NO | 90.3% and 90% and 85.2% | 86.3% and 84.5% and 83.5% | 59.8% and 62.8% and 69.6% | 45.6% and 39% and 44.7% | 26.5% and 27.6% and 33.8% | 10.4% and 6.72% and 10.9% | 725 nM and 670 nM and 991 nM | 
O=C(C=Cn1cnc(-c2cc(C(F)(F)F)cc(C(F)(F)F)c2)n1)NNc1cnccn1 |  |  |  |  |  |  | 75.3 nM and 68.3 nM and 67.1 nM | viability, T/C (compound 0.00949 µM): 95.6% and 113% and 96.3%; viability, T/C (compound 0.03 µM): 100% and 113% and 117%; viability, T/C (compound 0.0949 µM): 38% and 25% and 25.8%; viability, T/C (compound 0.3 µM): 5.56% and 4.15% and 4.46%; viability, T/C (compound 0.949 µM): 2.2% and 1.47% and 2.93%; viability, T/C (compound 3 µM): 1.21% and 0.91% and 1.13%
O=C(c1cc(Cc2n[nH]c(=O)c3ccccc23)ccc1F)N1CCN(C(=O)C2CC2)CC1 | 101% and 131% and 106% | 109% and 125% and 105% | 133% and 134% and 148% | 141% and 121% and 151% | 113% and 81.3% and 93.8% | 34.5% and 20.2% and 30.2% | 8010 nM and 5700 nM and 6980 nM | 
